Where two headings read alike, the source gives them in different places.
What was measured:
[1] = system: anti-CD3/anti-CD28 (Th0) or anti-CD3/anti-CD28, IL-1β, IL-6 and IL-23 (Th17) stimulated whole blood; experiment: Ex-vivo TruCulture tube assay: cytokine production in stimulated whole blood; format: cell-based, human; settings: for inhibition at 1 µM: Homo sapiens
Experimental: Whole blood was received through the Celgene Donor program after informed consent and donor deidentification. All volunteers were healthy and were not on any medications for at least 72 hours prior to the blood draw. Blood was collected in sodium heparin tubes. The assay was started within 2 hours of the blood draw.
An ex-vivo stimulation of healthy donor human whole blood was performed under two different stimulation conditions. Condition Th0 was a stimulation with TruCulture® tubes containing anti-CD3/anti-CD28. Condition Th17 was a stimulation with TruCulture® tubes containing anti-CD3/anti-CD28 plus IL-1β, IL-6 and IL-23. Whole blood was separated into 15 milliliter conical tubes and pre-treated with DMSO, apremilast alone, BMS-986165 alone or BMS-986165 combined with apremilast. Final concentrations were 0.2% DMSO, 1 μM for apremilast alone, 1 μM, 0.1 μM, 0.01 μM and 0.001 μM BMS-986165 alone and in combination with 1 μM apremilast. Blood was mixed well and then incubated in a 37° C./5% CO2 incubator for 1 hour.
The anti-CD3/anti-CD28 (200 ng/ml and 330 ng/ml final concentrations respectively) TruCulture® tubes were thawed on the bench top for 30 minutes and then labeled. Plungers were pressed and then broken off. TruCulture® tubes were placed in a rack standing upright such that the plunger side is pointing down in the rack and the tube-cap is pointing up. While blood was incubating with compound Human recombinant IL-6, IL-1β and IL-23 were added to all Th17 tubes in the following concentrations: 120 ng IL-6, 120 ng IL-1b and 150 ng IL-23. One ml of the pre-treated whole blood was placed in each tube, using sterile pyrogen-free pipette tips. The cap was replaced and the contents of the tube were mixed by inverting 3 times. The tubes were immediately placed in a 37° C. heat block and incubated for 42 hours (tube-cap end). After the 42 hours the tubes were removed from the heat block, tops were unscrewed and 250 μl of the supernatant was removed and transferred into three 96-well polypropylene plates. Samples were immediately frozen at −80° C. The supernatants were then thawed at room temperature and tested neat for cytokine production by Luminex Multi-Plex MagPix technology (Millipore) or IL-22 by ELISA (Abcam). The manufacturer's procedures were followed accordingly.
Data processing for the cytokine analysis was done using Milliplex Analyst (Millipore), and raw data was exported to Excel template for the cytokine analysis. Data from the template was plotted using GraphPad Prism 7.0 (GraphPad Software, Inc., La Jolla, CA) and expressed as pg/ml or % of control. Statistical analysis was also performed using One Way Anova and Dunnett's Post Test.
To evaluate the combinatory effect of apremilast and BMS-986165, data from the two independent treatments were analyzed by comparing the combinatory response against the theoretical additive response of the two agents. The expected additive effect of two agents (A and B) was calculated using the fractional product method: (fu)A,B=(fu)A×(fu)B; where fu=fraction unaffected by treatment.

[2] = system: LPS stimulated PBMCs; experiment: Viability of LPS stimulated PBMCs; format: cell-based, human; parameters: key: ↑: Induced; —: No change; ↓: Reduced

**Q.** Which results are given for `CCOc1cc([C@@H](CS(C)(=O)=O)N2C(=O)c3cccc(NC(C)=O)c3C2=O)ccc1OC` [Apremilast, N-[2-[(1S)-1-(3-ethoxy-4-methoxyphenyl)-2-(methylsulfonyl)ethyl]-2,3-dihydro-1,3-dioxo-1H-isoindol-4-yl]acetamide]?
**A.** inhibition at 1 µM ([1]; Th0, 1 μM apremilast, read-out: inhibition of IL-17F production): 69%; inhibition at 1 µM ([1]; Th0, 1 μM apremilast, read-out: inhibition of TNF-α levels): 90%; inhibition at 1 µM ([1]; Th17, 1 μM apremilast, read-out: inhibition of IL-17F production): 49%; inhibition at 1 µM ([1]; Th17, 1 μM apremilast, read-out: inhibition of TNF-α levels): 94%; CCL20 % of Control ([1]; Th0, 1 μM apremilast): 59.5 % of Control; GM-CSF % of Control ([1]; Th0, 1 μM apremilast): 20.3 % of Control; IFN-γ % of Control ([1]; Th0, 1 μM apremilast): 9.3 % of Control; IL-1β % of Control ([1]; Th0, 1 μM apremilast): 16.4 % of Control; IL-2 % of Control ([1]; Th0, 1 μM apremilast): 17.9 % of Control; IL-4 % of Control ([1]; Th0, 1 μM apremilast): 30.3 % of Control; IL-5 % of Control ([1]; Th0, 1 μM apremilast): 6.2 % of Control; IL-6 % of Control ([1]; Th0, 1 μM apremilast): 52.8 % of Control; IL-10 % of Control ([1]; Th0, 1 μM apremilast): 41.6 % of Control; IL-13 % of Control ([1]; Th0, 1 μM apremilast): 15.3 % of Control; IL-17A % of Control ([1]; Th0, 1 μM apremilast): 71.6 % of Control; IL-17F % of Control ([1]; Th0, 1 μM apremilast): 31.8 % of Control; IL-21 % of Control ([1]; Th0, 1 μM apremilast): 62.9 % of Control; IL-22 % of Control ([1]; Th0, 1 μM apremilast): 14.8 % of Control; IL-23 % of Control ([1]; Th0, 1 μM apremilast): 82.1 % of Control; TNF-α % of Control ([1]; Th0, 1 μM apremilast): 10.7 % of Control; inhibition of IL-17A cytokine expression ([1]; Th0, 1 μM apremilast): 28%; inhibition of IL-22 cytokine expression ([1]; Th0, 1 μM apremilast): 85%; reduction of GM-CSF cytokine expression ([1]; Th0, 1 μM apremilast): 80%; IL-17A levels ([1]; Th0, 1 μM apremilast, control 138 pg/mL): 93 pg/mL; IL-17F levels ([1]; Th0, 1 μM apremilast, control 1085 pg/mL): 368 pg/mL; TNF-α levels ([1]; Th0, 1 μM apremilast, control 1380 pg/mL): 148 pg/mL; effect on GM-CSF, statistical significance ([1]; Th0 and Th17, apremilast): significantly inhibited; CCL20 % of Control ([1]; Th17, 1 μM apremilast): 220.3 % of Control; GM-CSF % of Control ([1]; Th17, 1 μM apremilast): 33.8 % of Control; IFN-γ % of Control ([1]; Th17, 1 μM apremilast): 18.7 % of Control; IL-1β % of Control ([1]; Th17, 1 μM apremilast): 98 % of Control; IL-2 % of Control ([1]; Th17, 1 μM apremilast): 14.4 % of Control; IL-4 % of Control ([1]; Th17, 1 μM apremilast): 36.7 % of Control; IL-5 % of Control ([1]; Th17, 1 μM apremilast): 4.8 % of Control; IL-6 % of Control ([1]; Th17, 1 μM apremilast): 95.3 % of Control; IL-10 % of Control ([1]; Th17, 1 μM apremilast): 32.6 % of Control; IL-13 % of Control ([1]; Th17, 1 μM apremilast): 22.1 % of Control; IL-17A % of Control ([1]; Th17, 1 μM apremilast): 102.4 % of Control; IL-17F % of Control ([1]; Th17, 1 μM apremilast): 59.7 % of Control; IL-21 % of Control ([1]; Th17, 1 μM apremilast): 76.2 % of Control; IL-22 % of Control ([1]; Th17, 1 μM apremilast): 57.5 % of Control; IL-23 % of Control ([1]; Th17, 1 μM apremilast): 94.3 % of Control; TNF-α % of Control ([1]; Th17, 1 μM apremilast): 5.8 % of Control; effect on IL-17A cytokine expression ([1]; Th17, 1 μM apremilast): no effect; inhibition of IL-22 cytokine expression ([1]; Th17, 1 μM apremilast): 41%; reduction of GM-CSF cytokine expression ([1]; Th17, 1 μM apremilast): 66%; TNF-α levels ([1]; Th17, 1 μM apremilast, control 1436 pg/mL): 91 pg/mL; IL-17F levels ([1]; Th17, 1 μM apremilast, control 6524 pg/mL): 3643 pg/mL; effect on GM-CSF production ([1]; whole blood, Th0 and Th17): inhibited; effect on TNF-α production ([1]; whole blood, Th0 and Th17): inhibited; Viability [2]: —

Reference: patent US20250235450A1, “COMBINATION THERAPIES COMPRISING APREMILAST AND TYK2 INHIBITORS” (Celgene Corporation, priority 2019, published 2025)
